Source: US20240189289A1, “INHIBITORS OF EPHB3 SIGNALING” (The Brigham and Women`s Hospital, Inc., priority 2021, published 2024)
Read-outs that look alike come from different tables or passages of the source.

Assays:
Type in all cases: biochemical
[1] = target: EphA4 (Homo sapiens, UniProt P54764); assay: Eph receptor kinase activity assay (radiometric), EphA4; settings: for remaining activity at 0.01 µM: 10 nM compound, read-out: EphA4 % act 10 nM; for remaining activity at 0.1 µM: 100 nM compound, read-out: EphA4 % act 100 nM; for remaining activity at 0.3 µM: 300 nM compound, read-out: EphA4 % act 300 nM; for remaining activity at 0.03 µM: 30 nM compound, read-out: EphA4 % act 30 nM
[2] = target: T1, EphB4 (Homo sapiens, UniProt P54760); assay: Eph receptor kinase activity assay (radiometric), EphB4; settings: for remaining activity at 0.01 µM: 10 nM compound, read-out: EphB4 % act 10 nM; for remaining activity at 0.1 µM: 100 nM compound, read-out: EphB4 % act 100 nM; for remaining activity at 0.3 µM: 300 nM compound, read-out: EphB4 % act 300 nM; for remaining activity at 0.03 µM: 30 nM compound, read-out: EphB4 % act 30 nM
T1 sequence (P54760 16-987): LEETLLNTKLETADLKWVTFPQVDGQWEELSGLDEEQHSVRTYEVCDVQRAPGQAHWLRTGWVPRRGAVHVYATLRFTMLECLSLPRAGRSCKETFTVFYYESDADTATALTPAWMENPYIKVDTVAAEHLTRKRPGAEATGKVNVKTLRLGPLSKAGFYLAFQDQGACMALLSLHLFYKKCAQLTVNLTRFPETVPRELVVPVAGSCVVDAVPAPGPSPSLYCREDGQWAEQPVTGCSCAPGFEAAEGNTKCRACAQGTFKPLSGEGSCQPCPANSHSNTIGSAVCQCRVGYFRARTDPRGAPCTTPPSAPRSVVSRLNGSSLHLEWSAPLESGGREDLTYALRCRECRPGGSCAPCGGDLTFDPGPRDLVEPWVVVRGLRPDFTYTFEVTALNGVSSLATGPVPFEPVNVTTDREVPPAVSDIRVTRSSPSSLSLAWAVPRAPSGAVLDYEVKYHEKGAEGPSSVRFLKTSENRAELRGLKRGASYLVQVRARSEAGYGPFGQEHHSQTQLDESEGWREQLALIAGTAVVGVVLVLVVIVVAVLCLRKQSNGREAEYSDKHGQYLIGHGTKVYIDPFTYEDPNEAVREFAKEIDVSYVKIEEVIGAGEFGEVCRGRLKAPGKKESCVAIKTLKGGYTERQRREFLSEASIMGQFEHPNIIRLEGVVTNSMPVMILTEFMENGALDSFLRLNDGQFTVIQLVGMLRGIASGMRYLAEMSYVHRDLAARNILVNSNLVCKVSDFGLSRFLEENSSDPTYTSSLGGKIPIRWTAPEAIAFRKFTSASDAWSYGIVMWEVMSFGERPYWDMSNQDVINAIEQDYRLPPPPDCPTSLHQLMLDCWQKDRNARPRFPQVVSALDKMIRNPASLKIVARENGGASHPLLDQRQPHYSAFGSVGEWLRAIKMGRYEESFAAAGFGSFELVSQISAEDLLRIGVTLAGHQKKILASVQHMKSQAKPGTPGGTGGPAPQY

[3] = target: T2, EphB3 (Homo sapiens, UniProt P54753); assay: EphB3 radiometric kinase activity assay (33P ATP filter binding); settings: for remaining activity at 0.01 µM: 10 nM compound, read-out: EphB3 % act 10 nM; for remaining activity at 0.1 µM: 100 nM compound, read-out: EphB3 % act 100 nM; for remaining activity at 0.3 µM: 300 nM compound, read-out: EphB3 % act 300 nM; for remaining activity at 0.03 µM: 30 nM compound, read-out: EphB3 % act 30 nM; for IC50: read-out: EphB3 (nM) IC50
T2 sequence (P54753 34-998): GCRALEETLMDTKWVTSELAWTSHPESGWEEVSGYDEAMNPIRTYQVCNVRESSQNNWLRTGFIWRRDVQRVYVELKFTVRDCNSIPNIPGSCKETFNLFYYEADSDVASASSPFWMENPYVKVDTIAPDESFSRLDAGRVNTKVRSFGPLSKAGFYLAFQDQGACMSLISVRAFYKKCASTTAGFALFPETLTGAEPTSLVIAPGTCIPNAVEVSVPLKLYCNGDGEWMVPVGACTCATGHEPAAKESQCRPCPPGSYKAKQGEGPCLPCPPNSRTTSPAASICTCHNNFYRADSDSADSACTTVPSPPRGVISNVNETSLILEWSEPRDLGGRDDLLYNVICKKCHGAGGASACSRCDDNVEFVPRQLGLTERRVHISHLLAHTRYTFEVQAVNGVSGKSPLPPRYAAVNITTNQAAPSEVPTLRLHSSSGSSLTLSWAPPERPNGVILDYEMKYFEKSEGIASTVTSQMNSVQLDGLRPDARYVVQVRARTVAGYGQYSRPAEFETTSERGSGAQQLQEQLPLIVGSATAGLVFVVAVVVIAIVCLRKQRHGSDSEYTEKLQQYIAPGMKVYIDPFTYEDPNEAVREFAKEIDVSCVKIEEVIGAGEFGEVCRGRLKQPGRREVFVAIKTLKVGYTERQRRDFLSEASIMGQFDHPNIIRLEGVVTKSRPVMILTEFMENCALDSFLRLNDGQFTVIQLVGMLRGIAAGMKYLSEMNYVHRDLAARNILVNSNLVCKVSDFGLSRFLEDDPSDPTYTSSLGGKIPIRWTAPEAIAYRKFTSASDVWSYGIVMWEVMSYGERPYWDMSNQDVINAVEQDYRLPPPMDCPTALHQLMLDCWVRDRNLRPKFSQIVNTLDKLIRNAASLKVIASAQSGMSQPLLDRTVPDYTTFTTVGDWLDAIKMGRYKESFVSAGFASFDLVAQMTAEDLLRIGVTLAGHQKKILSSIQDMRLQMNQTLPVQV
Description: EphB3 radiometric kinase activity assay. To study the EphB3 kinase activity, a radioactive filter binding assay using 33P ATP was performed as described at the […] International Centre for Kinase profiling. […] The mix was harvested onto P81 filter plates and counts were read on a Topcount NXT.

[4] = target: EphA2 (Homo sapiens, UniProt P29317); assay: Eph receptor kinase activity assay (radiometric), EphA2; settings: for remaining activity at 0.01 µM: 10 nM compound, read-out: EphA2 % act 10 nM; for remaining activity at 0.1 µM: 100 nM compound, read-out: EphA2 % act 100 nM; for remaining activity at 0.3 µM: 300 nM compound, read-out: EphA2 % act 300 nM; for remaining activity at 0.03 µM: 30 nM compound, read-out: EphA2 % act 30 nM
Sequence of EphA2 (P29317 24-976): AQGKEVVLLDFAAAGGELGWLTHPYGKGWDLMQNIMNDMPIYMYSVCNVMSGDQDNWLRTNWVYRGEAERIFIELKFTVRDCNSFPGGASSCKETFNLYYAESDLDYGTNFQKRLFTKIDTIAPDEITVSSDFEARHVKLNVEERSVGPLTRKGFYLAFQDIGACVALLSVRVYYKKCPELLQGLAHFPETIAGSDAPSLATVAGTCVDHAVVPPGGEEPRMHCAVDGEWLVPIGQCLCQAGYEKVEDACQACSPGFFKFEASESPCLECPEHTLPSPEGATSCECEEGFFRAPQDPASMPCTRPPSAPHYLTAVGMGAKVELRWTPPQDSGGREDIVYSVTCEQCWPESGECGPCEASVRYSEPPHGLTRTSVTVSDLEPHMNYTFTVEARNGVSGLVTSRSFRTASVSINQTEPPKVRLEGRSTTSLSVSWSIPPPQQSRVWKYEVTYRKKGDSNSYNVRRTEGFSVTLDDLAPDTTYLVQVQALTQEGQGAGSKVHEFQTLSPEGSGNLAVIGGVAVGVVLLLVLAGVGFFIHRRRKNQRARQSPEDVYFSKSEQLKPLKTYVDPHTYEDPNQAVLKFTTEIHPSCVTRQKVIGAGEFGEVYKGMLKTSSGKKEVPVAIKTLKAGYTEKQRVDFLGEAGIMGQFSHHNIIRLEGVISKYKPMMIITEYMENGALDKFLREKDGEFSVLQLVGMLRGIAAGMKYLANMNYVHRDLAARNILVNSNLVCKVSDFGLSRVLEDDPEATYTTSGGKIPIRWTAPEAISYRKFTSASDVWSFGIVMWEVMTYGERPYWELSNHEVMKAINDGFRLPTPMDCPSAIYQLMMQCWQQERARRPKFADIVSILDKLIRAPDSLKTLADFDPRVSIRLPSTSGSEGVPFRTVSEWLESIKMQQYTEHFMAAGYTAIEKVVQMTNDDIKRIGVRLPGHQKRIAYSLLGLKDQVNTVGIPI

Sequence of EphA4 (P54764 20-986): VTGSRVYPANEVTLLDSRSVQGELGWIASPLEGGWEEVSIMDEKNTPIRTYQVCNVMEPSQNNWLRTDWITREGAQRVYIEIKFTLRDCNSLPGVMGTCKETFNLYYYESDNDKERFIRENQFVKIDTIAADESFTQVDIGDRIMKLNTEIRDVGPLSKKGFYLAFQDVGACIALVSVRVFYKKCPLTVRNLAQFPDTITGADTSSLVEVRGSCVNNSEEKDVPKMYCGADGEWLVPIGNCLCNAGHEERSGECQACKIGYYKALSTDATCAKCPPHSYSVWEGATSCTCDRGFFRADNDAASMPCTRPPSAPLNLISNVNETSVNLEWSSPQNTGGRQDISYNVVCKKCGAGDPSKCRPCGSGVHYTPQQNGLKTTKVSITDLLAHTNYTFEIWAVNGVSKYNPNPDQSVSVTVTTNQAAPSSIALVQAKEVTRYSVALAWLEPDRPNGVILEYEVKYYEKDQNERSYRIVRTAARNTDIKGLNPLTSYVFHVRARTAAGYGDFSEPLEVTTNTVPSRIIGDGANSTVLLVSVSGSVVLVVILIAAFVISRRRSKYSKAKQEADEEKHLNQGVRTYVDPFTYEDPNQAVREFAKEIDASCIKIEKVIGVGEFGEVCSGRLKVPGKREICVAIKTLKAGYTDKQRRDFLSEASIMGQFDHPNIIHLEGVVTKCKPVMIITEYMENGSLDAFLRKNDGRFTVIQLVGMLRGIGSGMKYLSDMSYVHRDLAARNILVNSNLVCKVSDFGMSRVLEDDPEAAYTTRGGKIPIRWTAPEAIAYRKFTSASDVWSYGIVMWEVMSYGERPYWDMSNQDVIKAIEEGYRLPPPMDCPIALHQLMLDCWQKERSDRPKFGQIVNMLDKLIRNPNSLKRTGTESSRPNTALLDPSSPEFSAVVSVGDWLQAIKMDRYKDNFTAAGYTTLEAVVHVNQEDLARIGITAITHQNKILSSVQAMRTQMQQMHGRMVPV

remaining activity at 0.01 µM [1] [%] | remaining activity at 0.1 µM [1] [%] | remaining activity at 0.3 µM [1] [%] | remaining activity at 0.01 µM [2] [%] | remaining activity at 0.1 µM [2] [%] | remaining activity at 0.3 µM [2] [%] | remaining activity at 0.01 µM [3] [%] | remaining activity at 0.1 µM [3] [%] | remaining activity at 0.3 µM [3] [%] | remaining activity at 0.01 µM [4] [%] | remaining activity at 0.1 µM [4] [%] | remaining activity at 0.3 µM [4] [%] | remaining activity at 0.03 µM [1] [%] | remaining activity at 0.03 µM [2] [%] | remaining activity at 0.03 µM [3] [%] | remaining activity at 0.03 µM [4] [%] | SMILES | also measured
36 | 12 | 6 | 62 | 12 | 2 | 46 | 7 | 4 | 55 | 25 | 11 | – | – | – | – | NCc1cccc(-c2ccc3ncc(C(=O)Nc4ccccc4Cl)n3c2)c1 [compound 108, 6-(3-(Aminomethyl)phenyl)-N-(2-chlorophenyl)imidazo[1,2-a]pyridine-3-carboxamide] | –
74.7 | 89.8 | – | 104 | 86.7 | – | 110 | 102 | – | 95.8 | 80.8 | – | 75.9 | 95.6 | 110 | 83.8 | COc1cccc(NC(=O)c2cnc3ccc(C4CCNCC4)cn23)c1Cl [compound 117, N-(2-Chloro-3-methoxyphenyl)-6-(piperidin-4-yl)imidazo[1,2-a]pyridine-3-carboxamide] | IC50 ([1]; Table 3, Example 13): < 10 nM; IC50 ([2]; Table 3, Example 13): < 10 nM; IC50 ([3]; Table 3, Example 13): < 10 nM; IC50 ([4]; Table 3, Example 13): < 10 nM
102 | 85.6 | – | 94.7 | 132 | – | 103 | 41 | – | 76 | 70.5 | – | 85.1 | 106 | 86.2 | 75.3 | COc1cccc(-c2ccc3ncc(C(=O)Nc4ccccc4Cl)n3c2)c1 [compound 103, N-(2-Chlorophenyl)-6-(3-methoxyphenyl)imidazo[1,2-a]pyridine-3-carboxamide] | –
53.9 | 35.3 | – | 103 | 93.8 | – | 121 | 63.7 | – | 105 | 65.3 | – | 40.9 | 109 | 81.1 | 88.1 | Cc1cccc(-c2ccc3ncc(C(=O)Nc4ccccc4Cl)n3c2)c1 [compound 105, N-(2-Chlorophenyl)-6-(3-methylphenyl)imidazo[1,2-a]pyridine-3-carboxamide] | –
100 | 74.5 | – | 98.8 | 82 | – | 80.9 | 52.7 | – | 67.7 | 77 | – | 80.2 | 101 | 62 | 65.4 | COc1ccccc1-c1ccc2ncc(C(=O)Nc3ccccc3Cl)n2c1 [compound 101, N-(2-Chlorophenyl)-6-(2-methoxyphenyl)imidazo[1,2-a]pyridine-3-carboxamide] | IC50 ([1]; Table 2, Example 12): 297 nM; IC50 ([2]; Table 2, Example 12): 675 nM; IC50 ([3]; Table 2, Example 12): 90 nM; IC50 ([4]; Table 2, Example 12): 315 nM
87 | 47.3 | – | 97.4 | 66.5 | – | 116 | 91.4 | – | 104 | 82.1 | – | 55.9 | 97.5 | 73.9 | 83.5 | COc1ccc(Cl)c(NC(=O)c2cnc3ccc(C4CCNCC4)cn23)c1 [compound 118, N-(2-Chloro-5-methoxyphenyl)-6-(piperidin-4-yl)imidazo[1,2-a]pyridine-3-carboxamide] | IC50 ([1]; Table 3, Example 13): 57 nM; IC50 ([2]; Table 3, Example 13): 407 nM; IC50 ([3]; Table 3, Example 13): 630 nM; IC50 ([4]; Table 3, Example 13): 288 nM
104 | 54 | 34 | 89 | 32 | 9 | 108 | 55 | 28 | 115 | 67 | 40 | – | – | – | – | O=C(Nc1ccccc1Cl)c1cnc2ccc(-c3ncccn3)cn12 [compound 115, N-(2-Chlorophenyl)-6-(pyrimidin-2-yl)imidazo[1,2-a]pyridine-3-carboxamide] | –
80.3 | 72.8 | – | 87.2 | 76.3 | – | 116 | 78.3 | – | 71.3 | 45.1 | – | 74.2 | 75.9 | 90.3 | 61.2 | CN(C)CC(=O)N1CCC(c2ccc3ncc(C(=O)Nc4ccccc4Cl)n3c2)CC1 [compound 119, N-(2-Chlorophenyl)-6-(1-(dimethylglycyl)piperidin-4-yl)imidazo[1,2-a]pyridine-3-carboxamide] | –
50 | 25 | 12 | 37 | 7 | 2 | 50 | 14 | 7 | 53 | 33 | 14 | – | – | – | – | O=C(Nc1ccccc1Cl)c1cnc2ccc(-c3ccccn3)cn12 [compound 112, N-(2-chlorophenyl)-6-(pyridin-2-yl)imidazo[1,2-a]pyridine-3-carboxamide] | –
